In brackets after ≈: the same amount, converted by molar mass.
Columns and labels:
[1] = molecular target: Prostaglandin G/H synthase 2 (Homo sapiens, UniProt P35354); assay: Inhibition of cyclooxygenase-2
[2] = molecular target: Prostaglandin G/H synthase 1 (Homo sapiens, UniProt P23219); assay: Inhibition of cyclooxygenase-1
[3] = Cytotoxicity against human Fem-X cells; assay type: functional, cell-based
PBMC [4] = assay: Cytotoxicity against human PBMC cells; assay type: cell-based
K562 = assay: Cytotoxicity against human K562 cells; assay type: functional, cell-based
PBMC [5] = assay: Cytotoxicity against human PHA-activated PBMC cells; assay type: cell-based
HeLa = assay: Cytotoxicity against human HeLa cells; assay type: functional, cell-based

Sequence of Prostaglandin G/H synthase 1 (P23219 whole entry): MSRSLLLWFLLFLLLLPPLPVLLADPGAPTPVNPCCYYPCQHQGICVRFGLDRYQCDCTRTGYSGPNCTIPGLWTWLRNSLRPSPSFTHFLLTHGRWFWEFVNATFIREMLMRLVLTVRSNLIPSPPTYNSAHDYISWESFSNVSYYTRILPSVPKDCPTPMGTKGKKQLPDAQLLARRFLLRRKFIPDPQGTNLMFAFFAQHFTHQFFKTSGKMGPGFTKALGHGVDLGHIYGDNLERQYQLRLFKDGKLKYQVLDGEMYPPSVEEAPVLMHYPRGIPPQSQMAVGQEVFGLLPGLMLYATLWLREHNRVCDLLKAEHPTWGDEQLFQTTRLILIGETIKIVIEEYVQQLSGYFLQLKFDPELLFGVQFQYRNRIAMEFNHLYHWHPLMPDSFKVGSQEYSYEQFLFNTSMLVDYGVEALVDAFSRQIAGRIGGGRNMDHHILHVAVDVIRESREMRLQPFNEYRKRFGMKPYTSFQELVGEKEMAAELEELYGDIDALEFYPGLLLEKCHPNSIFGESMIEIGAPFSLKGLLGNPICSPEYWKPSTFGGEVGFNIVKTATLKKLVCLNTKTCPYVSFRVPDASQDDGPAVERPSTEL
Sequence of Prostaglandin G/H synthase 2 (P35354 whole entry): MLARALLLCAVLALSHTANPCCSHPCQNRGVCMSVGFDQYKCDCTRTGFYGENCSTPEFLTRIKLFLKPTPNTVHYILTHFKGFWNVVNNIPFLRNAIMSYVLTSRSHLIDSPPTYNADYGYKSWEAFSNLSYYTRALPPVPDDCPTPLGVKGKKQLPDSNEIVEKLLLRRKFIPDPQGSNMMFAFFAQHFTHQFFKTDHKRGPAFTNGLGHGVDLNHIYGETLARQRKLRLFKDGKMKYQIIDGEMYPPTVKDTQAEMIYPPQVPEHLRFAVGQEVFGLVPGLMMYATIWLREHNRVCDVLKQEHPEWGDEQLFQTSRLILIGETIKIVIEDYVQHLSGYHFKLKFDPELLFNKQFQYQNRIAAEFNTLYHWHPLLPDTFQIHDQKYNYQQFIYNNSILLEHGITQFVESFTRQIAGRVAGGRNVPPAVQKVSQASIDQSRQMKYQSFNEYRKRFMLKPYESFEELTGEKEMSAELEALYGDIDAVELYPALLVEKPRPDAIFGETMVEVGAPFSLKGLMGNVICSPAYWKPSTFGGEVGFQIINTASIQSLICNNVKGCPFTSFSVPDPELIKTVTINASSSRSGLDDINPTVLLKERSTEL

Row | SMILES | IC50 [1] | IC50 [2] | IC50 [3] | IC50 (PBMC [4]) | IC50 (K562) | IC50 (PBMC [5]) | IC50 (HeLa)
1 | C=C[C@@H]1[C@@H](O)C[C@@H]2[C@]3(CC[C@]4(C)[C@@H]([C@H](C)CCC(OO)C(=C)C)CC[C@@]24C)C[C@]13CCC(=O)OC (some centres not stated) | 4.7 µg | 43.7 µg | – | – | – | – | –
2 | C=C1C(=O)O[C@H]2C1C[C@@H](OC(C)=O)[C@@](C)(O)[C@@]13C=C[C@@](C)(OO1)[C@H]23 (some centres not stated) [APRESSIN] | – | – | 5.27 µg/mL (≈ 15.7 µM) | 15.9 µg/mL (≈ 47.2 µM) | 4.44 µg/mL (≈ 13.2 µM) | 8.78 µg/mL (≈ 26.1 µM) | 7.36 µg/mL (≈ 21.9 µM)
